In US20260015350A1, “AZAQUINAZOLINE PAN-KRAS INHIBITORS” (Mirati Therapeutics, Inc., priority 2022, published 2026):

Assays:
[1] = target: T1, KRas^WT (Homo sapiens, UniProt P01116); assay: KRas binding assay (TR-FRET tracer displacement), KRas WT; conditions: single point, 10 nM compound, TR-FRET
T1 construct: Biotinylated KRas (corresponding to amino acids 1-169, produced at Accelegan Inc.); biotin (biotinylated); purchased Accelegan Inc

[2] = target: T2, KRas^G12A (Homo sapiens, UniProt P01116, G12A); assay: KRas binding assay (TR-FRET tracer displacement), KRas G12A; conditions: single point, 10 nM compound, TR-FRET
T2 construct: Biotinylated KRas (corresponding to amino acids 1-169, produced at Accelegan Inc.); biotin (biotinylated); purchased Accelegan Inc

[3] = target: T3, KRas^G12C (Homo sapiens, UniProt P01116, G12C); assay: KRas binding assay (TR-FRET tracer displacement), KRas G12C; conditions: single point, 10 nM compound, TR-FRET
T3 construct: Biotinylated KRas (corresponding to amino acids 1-169, produced at Accelegan Inc.); biotin (biotinylated); purchased Accelegan Inc

[4] = target: T4, KRas^G12D (Homo sapiens, UniProt P01116, G12D); assay: KRas binding assay (TR-FRET tracer displacement), KRas G12D
T4 construct: Biotinylated KRas (corresponding to amino acids 1-169, produced at Accelegan Inc.); biotin (biotinylated); purchased Accelegan Inc

[5] = target: T5, KRas^G12R (Homo sapiens, UniProt P01116, G12R); assay: KRas binding assay (TR-FRET tracer displacement), KRas G12R
T5 construct: Biotinylated KRas (corresponding to amino acids 1-169, produced at Accelegan Inc.); biotin (biotinylated); purchased Accelegan Inc

[6] = target: T6, KRas^G12S (Homo sapiens, UniProt P01116, G12S); assay: KRas binding assay (TR-FRET tracer displacement), KRas G12S; conditions: single point, 10 nM compound, TR-FRET
T6 construct: Biotinylated KRas (corresponding to amino acids 1-169, produced at Accelegan Inc.); biotin (biotinylated); purchased Accelegan Inc

[7] = target: T7, KRas^G12V (Homo sapiens, UniProt P01116, G12V); assay: KRas binding assay (TR-FRET tracer displacement), KRas G12V
T7 construct: Biotinylated KRas (corresponding to amino acids 1-169, produced at Accelegan Inc.); biotin (biotinylated); purchased Accelegan Inc

[8] = target: T8, KRas^G13D (Homo sapiens, UniProt P01116, G13D); assay: KRas binding assay (TR-FRET tracer displacement), KRas G13D; conditions: single point, 10 nM compound, TR-FRET
T8 construct: Biotinylated KRas (corresponding to amino acids 1-169, produced at Accelegan Inc.); biotin (biotinylated); purchased Accelegan Inc

[9] = target: T9, KRas^Q61H (Homo sapiens, UniProt P01116, Q61H); assay: KRas binding assay (TR-FRET tracer displacement), KRas Q61H; conditions: single point, 10 nM compound, TR-FRET
T9 construct: Biotinylated KRas (corresponding to amino acids 1-169, produced at Accelegan Inc.); biotin (biotinylated); purchased Accelegan Inc

[10] = system: KRas-mediated phosphorylation of ERK in MKN1 cells; assay: Inhibition of KRas-mediated phosphorylation of ERK (Cisbio HTRF pERK), MKN1 cells; type: cell-based; conditions: Homo sapiens, MKN-1
Procedure, shortened: (§1)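 Day 1 seeding: 6,000 cells per well, RPMI/10% FBS, left overnight at 37° C. with 5% CO2. Plates then stood covered for 4 h at room temperature prior to HTRF detection of pERK.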

[11] = system: KRas-mediated phosphorylation of ERK in PSN1 cells; assay: Inhibition of KRas-mediated phosphorylation of ERK (Cisbio HTRF pERK), PSN1 cells; type: cell-based; conditions: Homo sapiens
Procedure, shortened: as §1

[12] = system: KRas-mediated phosphorylation of ERK in AsPC-1 cells; assay: Inhibition of KRas-mediated phosphorylation of ERK (Cisbio HTRF pERK), AsPC-1 cells; type: cell-based; conditions: Homo sapiens, ASPC1, AsPC-1 cells; HTRF pERK
Procedure, shortened: (§2)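 HTRF readout of phospho-ERK in cell lysates after 3 hrs of compound exposure. Dosing: 10 uM top, 3-fold steps, 10 doses, final DMSO 0.8%. Min control: 0.2 uM Trametinib. Lysis ran 40 mins at 4° C, and antibody detection 2 hrs at room temperature.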

[13] = system: KRas-mediated phosphorylation of ERK in H727 cells; assay: Inhibition of KRas-mediated phosphorylation of ERK (Cisbio HTRF pERK), H727 cells; type: cell-based; conditions: Homo sapiens, NCI-H727, H727 cells; HTRF pERK
Procedure, shortened: as §2

[14] = system: KRas-mediated phosphorylation of ERK in A549 cells; assay: Inhibition of KRas-mediated phosphorylation of ERK (Cisbio HTRF pERK), A549 cells; type: cell-based; conditions: Homo sapiens; for IC50: HTRF pERK
Procedure, shortened: (§3)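 6,000 cells/well; cpd 10 uM top, 3-fold x10, 0.8% DMSO final; 3 hr incubation; Min ctrl Trametinib 0.2 uM; lysis 40 min 4° C shaking; d2 + Cryptate Ab mix, 2 hr RT; HTRF read.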

[15] = system: KRas-mediated phosphorylation of ERK in H460 cells; assay: Inhibition of KRas-mediated phosphorylation of ERK (Cisbio HTRF pERK), H460 cells; type: cell-based; conditions: Homo sapiens, NCI-H460, HTRF pERK
Procedure, shortened: as §2

[16] = system: KRas-mediated phosphorylation of ERK in H358 cells; assay: Inhibition of KRas-mediated phosphorylation of ERK (Cisbio HTRF pERK), H358 cells; type: cell-based; conditions: Homo sapiens, NCI-H358, 3 h, single point, 100 nM compound, 3 hrs
Procedure, shortened: as §2

[17] = system: KRas-mediated phosphorylation of ERK in HCT116 cells; assay: Inhibition of KRas-mediated phosphorylation of ERK (Cisbio HTRF pERK), HCT116 cells; type: cell-based; conditions: Homo sapiens, HCT-116, HTRF pERK
Procedure, shortened: as §3

T1 sequence (P01116 1-169 isoform P01116-2): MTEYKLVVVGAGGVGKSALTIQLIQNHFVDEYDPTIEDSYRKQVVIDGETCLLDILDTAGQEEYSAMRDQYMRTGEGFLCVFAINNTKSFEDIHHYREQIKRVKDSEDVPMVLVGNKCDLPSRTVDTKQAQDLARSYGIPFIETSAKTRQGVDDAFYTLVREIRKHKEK
T9 sequence (P01116 1-169 isoform P01116-2 Q61H): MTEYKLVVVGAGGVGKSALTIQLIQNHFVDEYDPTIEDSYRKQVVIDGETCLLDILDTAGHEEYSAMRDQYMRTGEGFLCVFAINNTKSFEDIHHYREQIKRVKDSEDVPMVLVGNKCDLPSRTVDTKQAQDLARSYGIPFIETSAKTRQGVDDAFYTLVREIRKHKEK
T3 sequence (P01116 1-169 isoform P01116-2 G12C): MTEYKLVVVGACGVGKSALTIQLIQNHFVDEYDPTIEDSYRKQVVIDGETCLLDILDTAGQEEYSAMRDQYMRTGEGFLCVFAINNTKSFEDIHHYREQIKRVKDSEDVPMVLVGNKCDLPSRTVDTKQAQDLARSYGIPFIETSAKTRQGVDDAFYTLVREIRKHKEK
T6 sequence (P01116 1-169 isoform P01116-2 G12S): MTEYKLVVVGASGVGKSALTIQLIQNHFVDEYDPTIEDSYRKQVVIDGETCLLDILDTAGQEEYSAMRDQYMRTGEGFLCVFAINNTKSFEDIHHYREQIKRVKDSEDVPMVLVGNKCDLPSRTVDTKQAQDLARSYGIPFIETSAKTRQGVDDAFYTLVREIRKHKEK
T7 sequence (P01116 1-169 isoform P01116-2 G12V): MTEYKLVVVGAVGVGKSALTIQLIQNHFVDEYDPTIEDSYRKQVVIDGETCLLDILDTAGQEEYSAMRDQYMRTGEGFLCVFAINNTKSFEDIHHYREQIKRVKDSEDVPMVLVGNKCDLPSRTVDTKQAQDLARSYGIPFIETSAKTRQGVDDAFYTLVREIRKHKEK
T5 sequence (P01116 1-169 isoform P01116-2 G12R): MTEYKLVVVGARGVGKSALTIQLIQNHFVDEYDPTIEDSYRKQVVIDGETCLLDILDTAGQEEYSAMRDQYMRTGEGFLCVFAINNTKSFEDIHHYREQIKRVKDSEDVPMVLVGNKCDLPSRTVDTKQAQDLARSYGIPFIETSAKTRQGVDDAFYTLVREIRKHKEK
T8 sequence (P01116 1-169 isoform P01116-2 G13D): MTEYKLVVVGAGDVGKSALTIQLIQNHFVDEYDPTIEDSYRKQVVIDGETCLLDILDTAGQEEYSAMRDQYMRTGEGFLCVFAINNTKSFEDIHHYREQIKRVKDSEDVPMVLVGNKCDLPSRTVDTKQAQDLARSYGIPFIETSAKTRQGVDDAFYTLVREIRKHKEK
T4 sequence (P01116 1-169 isoform P01116-2 G12D): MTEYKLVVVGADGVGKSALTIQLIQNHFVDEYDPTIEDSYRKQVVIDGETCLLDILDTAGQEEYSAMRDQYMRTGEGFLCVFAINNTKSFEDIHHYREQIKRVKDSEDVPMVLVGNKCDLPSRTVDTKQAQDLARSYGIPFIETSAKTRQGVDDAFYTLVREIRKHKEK
T2 sequence (P01116 1-169 isoform P01116-2 G12A): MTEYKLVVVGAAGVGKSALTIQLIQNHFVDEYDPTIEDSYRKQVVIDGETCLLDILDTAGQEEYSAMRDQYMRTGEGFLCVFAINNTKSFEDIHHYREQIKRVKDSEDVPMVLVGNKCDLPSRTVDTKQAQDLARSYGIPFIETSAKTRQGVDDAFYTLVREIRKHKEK

inhibition at 0.01 µM [1]	inhibition at 0.01 µM [2]	inhibition at 0.01 µM [3]	IC50 [4]	IC50 [5]	inhibition at 0.01 µM [6]	IC50 [7]	inhibition at 0.01 µM [8]	inhibition at 0.01 µM [9]	IC50 [10]	IC50 [11]	IC50 [12]	IC50 [13]	IC50 [15]	IC50 [14]	IC50 [17]	Structure (SMILES)	inhibition at 0.1 µM ([14]; A549, 3 h, single point, 100 nM compound, 3 hrs)	inhibition at 0.1 µM [16]
68%	49%	56%	4 nM	10 nM	58%	7 nM	76%	70%	16 nM	7520 nM	49 nM	263 nM	51 nM			CCc1c(F)ccc2cc(O)cc(-c3ncc4c(N5CCCCC(C#N)C5)nc(OC[C@@]56CCCN5C[C@H](F)C6)nc4c3F)c12 (stereo partly drawn) [Example 547, 1-(7-(8-ethyl-7-fluoro-3-hydroxynaphthalen-1-yl)-8-fluoro-2-(((2R,7aS)-2-fluorohexahydro-1H-pyrrolizin-7a-yl)methoxy)pyrido[4,3-d]pyrimidin-4-yl)azepane-3-carbonitrile]	33%	20%
96%	95%	97%	< 2 nM	< 2 nM	97%	< 2 nM	98%	98%	1 nM	518 nM	7 nM	23 nM	8 nM	7 nM	23 nM	CCc1c(F)ccc2cc(O)cc(-c3ncc4c(N5CCC[C@@](C)(O)C5)nc(OC[C@@]56CCCN5[C@H](COC(=O)N5CCCC5)CC6)nc4c3F)c12 [Example 719, ((3S,7aS)-7a-(((7-(8-ethyl-7-fluoro-3-hydroxynaphthalen-1-yl)-8-fluoro-4-((R)-3-hydroxy-3-methylpiperidin-1-yl)pyrido[4,3-d]pyrimidin-2-yl)oxy)methyl)hexahydro-1H-pyrrolizin-3-yl)methyl pyrrolidine-1-carboxylate]		
89%	90%	92%	< 2 nM	< 2 nM	90%	< 2 nM	93%	92%	2 nM	956 nM	15 nM	28 nM	12 nM	19 nM	48 nM	CCc1c(F)ccc2cc(O)cc(-c3ncc4c(N5CCC[C@@](C)(O)C5)nc(OC[C@@]56CCCN5[C@H](COC(=O)N5CCCCC5)CC6)nc4c3F)c12 [Example 721, ((3S,7aS)-7a-(((7-(8-ethyl-7-fluoro-3-hydroxynaphthalen-1-yl)-8-fluoro-4-((R)-3-hydroxy-3-methylpiperidin-1-yl)pyrido[4,3-d]pyrimidin-2-yl)oxy)methyl)hexahydro-1H-pyrrolizin-3-yl)methyl piperidine-1-carboxylate]		
48%	54%	58%	17 nM	3 nM	66%	5 nM	55%	48%	32 nM	> 10000 nM	193 nM	87 nM	64 nM	76 nM	216 nM	CCc1cccc2cc3[nH]ncc3c(-c3ncc4c(N5C[C@@H]6C[C@H](C5)[C@H](O)C6)nc(OC[C@@]56CCCN5C[C@H](F)C6)nc4c3F)c12 [Example 767, (1R,5R,6R)-3-(7-(5-ethyl-1H-benzo[f]indazol-4-yl)-8-fluoro-2-(((2R,7aS)-2-fluorohexahydro-1H-pyrrolizin-7a-yl)methoxy)pyrido[4,3-d]pyrimidin-4-yl)-3-azabicyclo[3.2.1]octan-6-ol]		
